This note sets out measurements from patent publication US9597297B2, “Combination of pilocarpin and methimazol for treating Charcot-Marietooth disease and related disorders” (PHARNEXT, priority 2008, dated 2017).

Each structure is given as a SMILES string.

Test [1] deals with CMT transgenic rat model (PMP22 transgenic rats). Description: Electrophysiology: sensitive nerve potential amplitude (SNAP) in CMT rats. Type of test: in vivo. The conditions noted are these: CMT TG rats treated 20 weeks vs TG placebo. As to the method:
When appropriate, the rats are subjected to electrophysiological evaluation: the sensitive nerve conduction velocity as well as latencies and potential amplitude are measured.
NCV measurement and potential acquisition (subcutaneous) were performed with the help of the chain composed of an amplificator (AM System 1700 and/or EMG-UTC), a stimulator (Havard apparatus 223) and a computer equipped with an acquisition card and a software for acquisition (SPATOL) and for the signal treatment (CALVISE).
Animals were anesthetized using ketamine/xalazine and maintained on the thermostated plate at 37° C. throughout the test (anaesthetics were supplemented as needed). Stimulating silver needle electrodes were inserted in the proximal part of the tail. The recording electrode was inserted subcutaneously through about 1 mm of skin in the distal part of the tail (4 and 6 cm from the stimulating electrode). Constant-current square-wave stimuli, […] in duration, were administered at a frequency of 0.3 per second. Responses, amplified 5.000-20.000, were visualized and collected on a computer based data acquisition system. Latencies were measured at each wave onset (defined as the first clearly identifiable deflection from the baseline). Peak to peak amplitudes of the largest deflections were calculated to determine maximum amplitude. For each recording, measurements were performed on the averaged responses to at least ten identical stimuli.
Sensory related conduction velocity (SNCV) was calculated by division of the distance between the stimulating cathodes by the difference between the correspondent latencies obtained from the two sites of stimulation.

The next test relates to PMP22 mRNA. The experiment in a line: PMP22 mRNA expression in primary rat Schwann cells after 24 hrs drug incubation. Type of test: cell-based. The procedure:
Vials of rat Schwann cells (SC) primary culture (Sciencell # R1700) are defrosted and seeded at the density of 10,000 cells/cm2 in “Sciencell Schwann cell medium” (basal medium from Sciencell # R1701) in poly-L-lysine pre-coated 75 cm^2 flasks. The culture medium is composed of basal medium, 5% Fetal Bovine Serum (3H-Biomedical AB #1701-0025), 1% Schwann cell growth supplement (3H Biomedical AB #1701-1752), 1% Gentamicin (Sigma #G1397) and 10 μM of Forskolin (Sigma # F6886) to promote their proliferation.
After reaching confluency (4 to 10 days depending on cell batch), Schwann cells are purified by gentle agitation or by thy1.1 immunopanning that allow SC isolation from adherent fibroblasts, to produce cultures that are at least 95% pure. SC are then counted (Tryptan blue method) and seeded in poly-L-lysine pre-coated 75 cm^2 flask in the same SC medium. At confluency, cells are rinsed, trypsinized (trypsin-EDTA 1× diluted from Invitrogen #1540054), diluted in PBS without calcium and magnesium) counted and platted in 12 well-dishes (140 000 cells/well) in Sciencell Schwann cell medium with 5% of FBS, 1% of cell growth supplement (CGS), 40 μg/ml of gentamicin and 4 μM Forskolin.
Primary Schwann cell cultures (SC) are established from Sprague-Dawley newborn rats (between P0 and P2) sciatic nerves. All newborn rats are sacrificed and isolated in a Petri dish. Dissection is performed under sterile conditions.
The dorsal skin is removed from the hind paw and the lower torso. The sciatic nerve is isolated and transferred to a culture dish containing ice-cold Leibovitz (L15, Invitogen #11415) supplemented with 1% penicillin/streptomycin solution (50 UI/ml and 50 μg/ml, respectively; Invitrogen #15070) and 1% of bovine serum albumin (BSA, Sigma A6003). Both nerves per rats are transferred in a 15 ml tube containing ice-cold L15. The L15 medium is then removed and replaced by 2.4 ml of DMEM (Invitrogen #21969035) with 10 mg/ml of collagenase ([…]). Nerves are incubated in this medium for 30 minutes at 37° C. The medium is then removed and both nerves are dissociated by trypsin (10% trypsin EDTA 10×, Invitrogen #15400054) diluted in PBS without calcium and magnesium (Invitrogen #2007-03) for 20 min at 37° C. […] Cells are counted (Tryptan blue method) and seeded in Falcon 100 mm Primaria tissue culture plates at the density of 5·10^5 to 10^6 cells/dish. […]
After 8 days of culture (4 to 10 days depending on cell batches), Schwann cells reach confluency and the culture, containing a large amount of contaminating fibroblasts, is purified by the thy1.1 immunopanning method. […] Once they reach confluency, cells are rinsed, trypsinized (trypsin-EDTA), counted and platted in 12 well-dishes (100 000 cells/well). […]

Consider `Cn1cc[nH]c1=S` [methimazole, 1-methyl-3H-imidazole-2-thione], for which the “SNAP (sensitive nerve potential amplitude), distal portion of the tail” value in test [1] is on record as “significantly improved”. Besides, in the test on PMP22 mRNA (primary Schwann cells), the “dose inducing the most important PMP22 mRNA down-regulation” value is “lower dose”. Also, in the test with PMP22 mRNA (primary rat Schwann cells, 1 mM or 1 μM of compound A), the “PMP22 mRNA level” value is “significantly decreased”.

For `CC[C@@H]1C(=O)OC[C@@H]1Cc1cncn1C` [pilocarpine, (3S,4R)-3-ethyl-4-[(3-methylimidazol-4-yl)methyl]oxolan-2-one], the “SNAP (sensitive nerve potential amplitude), distal portion of the tail” value in test [1] is listed as “failed to reach statistical significance”; in test [1] (listed as compound B) it was “approaching the nominal 5% threshold for significance”. Besides, the “dose inducing the most important PMP22 mRNA down-regulation” value in the test with PMP22 mRNA (primary Schwann cells) is 1 µM. Further, the “PMP22 mRNA level of expression” value with PMP22 mRNA (primary Schwann cells, low doses 10 nM and 50 nM) is reported as “significantly down-regulated”.
